# Measurements as given in patent publication US20200353027A1, “A LILAC GINKGO BRICK TEA WITH LIPID LOWERING AND LIVER PROTECTION ACTIVITIES AND A METHOD OF PREPARING THE SAME” (SHAANXI UNIVERSITY OF SCIENCE AND TECHNOLOGY, priority 2019, published 2020).
# Tested on: mice given ethanol alcohol (alcohol's damage to the liver)
# Assay: Liver protection in mice given ethanol alcohol
# Format: in vivo, Kunming mice
# Conditions: Tiopronin 50 mg/kg/day, ethanol 3 g/kg/day, after 25 days, blood
# Experimental: To study the liver protection effect of the Lilac Ginkgo Brick Tea of Example 1, the following experiments were conduct.
# Male Kunming mice, 50 SPF grades, 5 weeks old, 30-35 g, were randomly divided into Blank Group, Control Group, Tiopronin Positive Control Group, Low Dosage Group, and High Dosage Group. 100 g of Lilac Ginkgo Brick Tea was boiled in 1 L water, filtered, and concentrated to 50 mL concentrated Lilac Ginkgo Brick Tea solution. Blank Group and Control Group were given water and regular food; Tiopronin Group was given 50 mg/kg/day Tiopronin; and Low Dosage Group and High Dosage Group were given 20 mL/kg/day and 50 mL/kg/day concentrated Lilac Ginkgo Brick Tea solution, respectively, and regular food. Control Group, Tiopronin Positive Control Group, Low Dosage Group, and High Dosage Group were given 3 g/kg/day (0.01 mL/g) ethanol alcohol. Blank Group was given equal volume water. After 25 days, the mice were fasted for 2 hours, and blood samples were taken to determine alanine aminotransferase (ALT), aspartate aminotransferase (AST), and triglyceride (TG) levels.
structure (smiles),measurement,value
CC(S)C(=O)NCC(=O)O (stereo not drawn) [Tiopronin],ALT (alanine aminotransferase),64.80 ± 10.47 U/L
same,AST (aspartate aminotransferase),140.39 ± 20.92 U/L
same,TG (triglyceride),1.295 ± 0.43 mmol/L
